Experimental data as given in PubChem BioAssay (NCI).
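How tested: cells in 96-well plates exposed to compound for 48 hours at five concentrations. TGI marks complete inhibition of growth.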

Tests used:
Assay in all cases: inhibition of tumour cell growth, NCI panel, 48 h
SNB-75 CNS = test system: SNB-75 CNS
UACC-257 melanoma = test system: UACC-257 melanoma
NCI-H460 lung = test system: NCI-H460 lung
CAKI-1 renal = test system: CAKI-1 renal
U251 CNS = test system: U251 CNS
SNB-19 CNS = test system: SNB-19 CNS
LOX IMVI melanoma = test system: LOX IMVI melanoma
KM12 colon = test system: KM12 colon
UO-31 renal = test system: UO-31 renal
A498 renal = test system: A498 renal
SK-MEL-5 melanoma = test system: SK-MEL-5 melanoma
RXF 393 renal = test system: RXF 393 renal
HCT-116 colon = test system: HCT-116 colon
HS 578T breast = test system: HS 578T breast
HOP-92 NSCLC = test system: HOP-92 NSCLC
MDA-MB-231 breast = test system: MDA-MB-231 breast
BT-549 breast = test system: BT-549 breast
SR leukemia = test system: SR leukemia

| SMILES | TGI (SNB-75 CNS) | TGI (UACC-257 melanoma) | TGI (NCI-H460 lung) | TGI (CAKI-1 renal) | TGI (U251 CNS) | TGI (SNB-19 CNS) | TGI (LOX IMVI melanoma) | TGI (KM12 colon) | TGI (UO-31 renal) | TGI (A498 renal) | TGI (SK-MEL-5 melanoma) | TGI (RXF 393 renal) | TGI (HCT-116 colon) | TGI (HS 578T breast) | TGI (HOP-92 NSCLC) | TGI (MDA-MB-231 breast) | TGI (BT-549 breast) | TGI (SR leukemia) |
| --- | --- | --- | --- | --- | --- | --- | --- | --- | --- | --- | --- | --- | --- | --- | --- | --- | --- | --- |
| Cc1ccc(C(=O)C(C)N)cc1C (stereo unspecified) | > 100 µM | > 100 µM | > 100 µM | > 100 µM | > 100 µM | > 100 µM | > 100 µM | > 100 µM | > 100 µM | > 100 µM | > 100 µM | > 100 µM | > 100 µM | – | – | – | – | – |
| C[C@]12CC[C@H]3[C@@H](CCC4=CC(=O)CC[C@@]43C)[C@@H]1CC[C@@H]2OC(=O)c1cccc2c(=O)c3ccccc3[nH]c12 | > 100 µM | > 100 µM | > 100 µM | – | > 100 µM | > 100 µM | 62.1 µM | > 100 µM | > 100 µM | > 100 µM | > 100 µM | > 100 µM | – | > 100 µM | > 100 µM | > 100 µM | > 100 µM | – |
| COc1cc2c(cc1OC)C(=O)N1CCCC1C(=O)S2 (stereo unspecified) | – | > 100 µM | > 100 µM | – | > 100 µM | > 100 µM | > 100 µM | > 100 µM | > 100 µM | – | > 100 µM | > 100 µM | > 100 µM | – | > 100 µM | – | – | > 100 µM |
| CC(=O)Oc1cc2c(n(C)c1=O)CCC2 | > 100 µM | > 100 µM | > 100 µM | > 100 µM | > 100 µM | > 100 µM | > 100 µM | > 100 µM | > 100 µM | > 100 µM | > 100 µM | – | > 100 µM | – | > 100 µM | > 100 µM | > 100 µM | – |
| NCCSc1nc(N)c2ncn(C3OC(CO)C(O)C3O)c2n1 (stereo unspecified) | > 100 µM | > 100 µM | > 100 µM | > 100 µM | > 100 µM | > 100 µM | > 100 µM | > 100 µM | > 100 µM | > 100 µM | > 100 µM | – | > 100 µM | – | > 100 µM | – | – | > 100 µM |
| C#CC1(O)CC(c2ccccc2)N(C)C(c2ccccc2)C1 (stereo unspecified) | > 100 µM | > 100 µM | > 100 µM | > 100 µM | > 100 µM | > 100 µM | > 100 µM | > 100 µM | > 100 µM | > 100 µM | > 100 µM | > 100 µM | 32.4 µM | – | > 100 µM | – | – | – |
| NC(=O)N=Nc1c2ccccc2n2[nH]ccc12 | > 100 µM | > 100 µM | > 100 µM | > 100 µM | > 100 µM | > 100 µM | > 100 µM | > 100 µM | – | > 100 µM | > 100 µM | 59.4 µM | > 100 µM | > 100 µM | > 100 µM | > 100 µM | – | > 100 µM |
| Cc1ccc2c(c1)C/C(=C\c1ccccc1C(=O)O)C2=O | > 100 µM | > 100 µM | > 100 µM | > 100 µM | > 100 µM | > 100 µM | > 100 µM | > 100 µM | > 100 µM | > 100 µM | > 100 µM | > 100 µM | > 100 µM | > 100 µM | > 100 µM | – | > 100 µM | 91.3 µM |
